Reference: patent publication US20040171543A1, “Matrix metalloproteinase inhibitors and methods for identification of lead compounds” (priority 2002, published 2004)
Where a name gives a salt, the structure may show the parent alone. Read-outs that look alike come from different tables or passages of the source. Marks after values point to notes of the source that are not given here.

How the values were obtained:
[1] = biological target: T1, MMP-9 (Homo sapiens, UniProt P14780); assay: TPL (thiopeptolide) assay, MMP-9; assay type: biochemical
Source text: (§1) The assays that can be used to evaluate the biological activity of various compounds for inhibiting MMPs are well-known and routinely used by those skilled in the art. They measure the amount by which a test compound reduces the hydrolysis of a thiopeptolide substrate caused by a matrix metalloproteinase enzyme. Such assays are described in detail by Ye et al., in Biochemistry, 1992;31(45): 11231-11235, which is incorporated herein by reference.
(§2) Thiopeptolide substrates show virtually no decomposition or hydrolysis in the absence of a matrix metalloproteinase enzyme. A typical thiopeptolide substrate commonly utilized for assays is Ac-Pro-Leu-Gly-thioester-Leu-Leu-Gly-OEt. A 100 μL assay mixture will contain 50 mM of 2-morpholinoethane sulfonic acid monohydrate (MES, pH 6.0) 10 mM CaCl2, 100 μM thiopeptolide substrate, and 1 mM 5,5′-dithio-bis-(2-nitro-benzoic acid) (DTNB). The thiopeptolide substrate concentration is varied from 10 to 800 μM to obtain Km and Kcat values. The change in absorbance at […] is monitored on a Thermo Max microplate reader (Molecular Devices, Menlo Park, Calif.) at room temperature (22° C.). The calculation of the amount of hydrolysis of the thiopeptolide substrate is based on E412=13600 m^−1 cm^−1 for the DTNB-derived product 3-carboxy-4-nitrothiophenoxide. Assays are carried out with and without matrix metalloproteinase inhibitor compounds, and the amount of hydrolysis is compared for a determination of inhibitory activity of the test compounds.

[2] = biological target: MMP-3 (Homo sapiens, UniProt P08254); assay: TPL (thiopeptolide) assay, MMP-3; assay type: biochemical
Source text: as §1, §2

[3] = biological target: T2, MMP-12 (Homo sapiens, UniProt P39900); assay: TPL (thiopeptolide) assay, MMP-12 (without and with AH); assay type: biochemical
Source text: as §1, §2
Although ligand size is not critical, a bulky ligand will block more binding sites of the MMP than a smaller ligand, and may thus prevent potential inhibitors that bind close to, but not at, the functional metal cation from being identified. Suitable ligands are therefore low molecular weight molecules, e.g. acetohydroxamic acid (CH3CONHOH) whose use is preferred.

[4] = biological target: T3, MMP-2 (Homo sapiens, UniProt P08253); assay: TPL (thiopeptolide) assay, MMP-2; assay type: biochemical
T3 sequence (P08253 110-660): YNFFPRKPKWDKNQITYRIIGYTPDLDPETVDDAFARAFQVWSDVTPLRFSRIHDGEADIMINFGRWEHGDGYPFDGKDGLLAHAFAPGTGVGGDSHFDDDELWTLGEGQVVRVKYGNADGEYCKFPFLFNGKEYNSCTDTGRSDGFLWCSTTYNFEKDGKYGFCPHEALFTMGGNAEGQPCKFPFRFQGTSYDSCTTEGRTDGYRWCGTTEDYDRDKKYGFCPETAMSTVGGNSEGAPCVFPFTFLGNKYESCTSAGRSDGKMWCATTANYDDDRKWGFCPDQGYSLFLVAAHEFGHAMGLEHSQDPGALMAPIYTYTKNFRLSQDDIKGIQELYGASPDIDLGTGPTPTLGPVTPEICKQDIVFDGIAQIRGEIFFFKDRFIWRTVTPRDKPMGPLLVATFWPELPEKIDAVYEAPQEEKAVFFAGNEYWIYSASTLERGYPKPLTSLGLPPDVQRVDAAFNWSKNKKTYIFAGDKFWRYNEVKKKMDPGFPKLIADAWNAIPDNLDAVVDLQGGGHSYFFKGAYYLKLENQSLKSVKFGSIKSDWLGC
Source text: as §1, §2

[5] = biological target: T4, MMP-13 (Homo sapiens, UniProt P45452); assay: TPL (thiopeptolide) assay, MMP-13 (without and with AH); assay type: biochemical
Description: Thiopeptolide substrates show virtually no decomposition or hydrolysis in the absence of a matrix metalloproteinase enzyme. A typical thiopeptolide substrate commonly utilized for assays is Ac-Pro-Leu-Gly-thioester-Leu-Leu-Gly-OEt. A 100 μL assay mixture will contain 50 mM of 2-morpholinoethane sulfonic acid monohydrate (MES, pH 6.0) 10 mM CaCl2, 100 μM thiopeptolide substrate, and 1 mM 5,5′-dithio-bis-(2-nitro-benzoic acid) (DTNB). […] The change in absorbance at 405 mm is monitored on a Thermo Max microplate reader (Molecular Devices, Menlo Park, Calif.) at room temperature (22° C.). […] Assays are carried out with and without matrix metalloproteinase inhibitor compounds, and the amount of hydrolysis is compared for a determination of inhibitory activity of the test compounds.

[6] = biological target: MMP-14 (Homo sapiens, UniProt P50281); assay: TPL (thiopeptolide) assay, MMP-14; assay type: biochemical
Source text: as §1, §2

[7] = biological target: T5, MMP-1 (Homo sapiens, UniProt P03956); assay: TPL (thiopeptolide) assay, MMP-1; assay type: biochemical
T5 sequence (P03956 100-469): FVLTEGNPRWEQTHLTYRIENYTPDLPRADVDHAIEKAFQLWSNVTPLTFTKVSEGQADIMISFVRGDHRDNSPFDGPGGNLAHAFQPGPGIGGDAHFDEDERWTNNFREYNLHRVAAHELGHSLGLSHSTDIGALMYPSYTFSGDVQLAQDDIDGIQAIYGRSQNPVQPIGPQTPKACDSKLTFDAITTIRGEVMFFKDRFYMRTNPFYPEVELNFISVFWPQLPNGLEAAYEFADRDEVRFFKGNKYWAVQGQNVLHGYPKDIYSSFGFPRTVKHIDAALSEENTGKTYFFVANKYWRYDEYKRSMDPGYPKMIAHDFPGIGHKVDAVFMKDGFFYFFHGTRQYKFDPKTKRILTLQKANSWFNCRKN
Source text: as §1, §2

[8] = biological target: T6, MMP-13 catalytic domain (MMP-13CD) (Homo sapiens, UniProt P45452); assay: Fluorigenic peptide-1 substrate based assay, MMP-13CD, with/without AcNHOH; assay type: biochemical; conditions: for IC50 Ratio (±): IC50 with AcNHOH divided by IC50 without; for IC50: FP1 substrate
T6 construct: The catalytic domain of the MMP-13 enzyme, namely matrix metalloproteinase-13 catalytic domain (“MMP-13CD”)
Description: The catalytic domain of the MMP-13 enzyme, namely matrix metalloproteinase-13 catalytic domain (“MMP-13CD”), rather than the corresponding full-length enzyme, MMP-13 was used in such assay.
50 mM HEPES buffer (pH 7.0)
2% DMSO (with or without inhibitor test compound)
1. Dispensed 2 μL inhibitor test sample (in 100% DMSO) into well.
2. Added 88 μL assay mixture and mixed well, avoiding bubbles.
3. Initiated reactions with 10 μL of 5 nM MMP-13CD; mixed well, avoiding bubbles.
4. Immediately measured the kinetics of the reactions at room temperature.
Alternatively, an endpoint read can also be used to determine reaction velocity provided the initial fluorescence of the solution, as recorded before addition of enzyme, is subtracted from the final fluorescence of the reaction mixture.

[9] = biological target: T7, MMP-7 (Homo sapiens, UniProt P09237); assay: TPL (thiopeptolide) assay, MMP-7; assay type: biochemical
T7 sequence (P09237 95-267): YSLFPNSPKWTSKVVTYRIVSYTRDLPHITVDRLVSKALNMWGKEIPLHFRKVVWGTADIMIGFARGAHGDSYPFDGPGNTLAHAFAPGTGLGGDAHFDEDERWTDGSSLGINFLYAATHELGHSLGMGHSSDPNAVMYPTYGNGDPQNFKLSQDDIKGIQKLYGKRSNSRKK
Source text: as §1
as §2, with “Assays are carried out with and without matrix metalloproteinase inhibitor compounds, and the amount of hydrolysis is compared for a determination of inhibitory activity of the test compounds.” left out

[10] = biological target: T1, MMP-9; conditions: Chen et al.; cited from earlier work
[11] = biological target: TACE (Homo sapiens, UniProt P78536); conditions: Chen et al.; cited from earlier work
[12] = biological target: T5, MMP-1; conditions: Chen et al.; cited from earlier work
[13] = biological target: T4, MMP-13; conditions: Chen et al.; cited from earlier work
[14] = biological target: MMP-8 (Homo sapiens, UniProt P22894); assay: TPL (thiopeptolide) assay, MMP-8; assay type: biochemical
Source text: as §1
as §2, with “Assays are carried out with and without matrix metalloproteinase inhibitor compounds, and the amount of hydrolysis is compared for a determination of inhibitory activity of the test compounds.” left out

[15] = biological target: T3, MMP-2; conditions: Curtin et al.; cited from earlier work
[16] = tested on: tumor growth; conditions: murine syngenetic tumor growth model; cited from earlier work
[17] = tested on: MMP-2 and MMP-9; conditions: Wada et al.; cited from earlier work
[18] = biological target: T2, MMP-12; conditions: literature; cited from earlier work
[19] = TPL assay, without AH, read-out: IC50 MMP-12
[20] = TPL assay, without AH, read-out: IC50 MMP-13
[21] = in presence of acetohydroxamic acid (+AH), read-out: IC50 MMP12 (+AH)

T1 sequence (P14780 94-707): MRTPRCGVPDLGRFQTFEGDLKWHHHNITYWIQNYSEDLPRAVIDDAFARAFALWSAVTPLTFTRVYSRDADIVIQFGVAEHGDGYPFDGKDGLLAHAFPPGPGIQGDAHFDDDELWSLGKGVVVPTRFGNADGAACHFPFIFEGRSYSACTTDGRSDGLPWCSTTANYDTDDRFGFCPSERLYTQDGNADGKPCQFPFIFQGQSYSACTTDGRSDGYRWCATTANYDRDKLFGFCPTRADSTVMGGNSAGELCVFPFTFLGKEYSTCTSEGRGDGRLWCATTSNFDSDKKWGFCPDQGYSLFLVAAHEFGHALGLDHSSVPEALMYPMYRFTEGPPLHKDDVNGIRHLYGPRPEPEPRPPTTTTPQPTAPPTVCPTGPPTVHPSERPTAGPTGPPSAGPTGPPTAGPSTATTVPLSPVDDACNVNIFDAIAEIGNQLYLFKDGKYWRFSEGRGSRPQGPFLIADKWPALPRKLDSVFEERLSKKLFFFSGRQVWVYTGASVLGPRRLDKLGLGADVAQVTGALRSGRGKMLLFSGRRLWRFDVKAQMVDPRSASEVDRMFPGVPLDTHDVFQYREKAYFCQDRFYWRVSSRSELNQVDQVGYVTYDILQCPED
MMP-3, sequence (P08254 100-477): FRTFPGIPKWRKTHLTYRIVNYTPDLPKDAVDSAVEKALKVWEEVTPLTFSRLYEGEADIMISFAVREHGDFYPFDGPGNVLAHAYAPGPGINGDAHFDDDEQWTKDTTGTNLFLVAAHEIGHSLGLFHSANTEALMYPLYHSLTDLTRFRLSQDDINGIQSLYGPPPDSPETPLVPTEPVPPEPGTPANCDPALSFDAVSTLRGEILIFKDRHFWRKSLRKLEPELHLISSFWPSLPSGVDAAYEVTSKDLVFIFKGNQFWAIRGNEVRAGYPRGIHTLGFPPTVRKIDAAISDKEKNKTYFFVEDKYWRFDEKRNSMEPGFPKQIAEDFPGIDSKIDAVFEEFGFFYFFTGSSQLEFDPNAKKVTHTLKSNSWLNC
T2 sequence (P39900 106-470): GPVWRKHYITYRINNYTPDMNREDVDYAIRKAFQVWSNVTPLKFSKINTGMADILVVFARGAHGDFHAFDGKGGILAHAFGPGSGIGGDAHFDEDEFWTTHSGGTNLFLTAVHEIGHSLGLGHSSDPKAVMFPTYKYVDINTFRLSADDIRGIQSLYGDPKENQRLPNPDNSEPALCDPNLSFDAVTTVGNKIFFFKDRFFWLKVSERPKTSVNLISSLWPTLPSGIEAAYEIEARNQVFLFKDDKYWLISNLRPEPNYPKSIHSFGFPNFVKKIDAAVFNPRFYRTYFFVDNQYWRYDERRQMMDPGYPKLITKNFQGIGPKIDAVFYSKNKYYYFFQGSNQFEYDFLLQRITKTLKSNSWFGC
MMP-8, sequence (P22894 101-467): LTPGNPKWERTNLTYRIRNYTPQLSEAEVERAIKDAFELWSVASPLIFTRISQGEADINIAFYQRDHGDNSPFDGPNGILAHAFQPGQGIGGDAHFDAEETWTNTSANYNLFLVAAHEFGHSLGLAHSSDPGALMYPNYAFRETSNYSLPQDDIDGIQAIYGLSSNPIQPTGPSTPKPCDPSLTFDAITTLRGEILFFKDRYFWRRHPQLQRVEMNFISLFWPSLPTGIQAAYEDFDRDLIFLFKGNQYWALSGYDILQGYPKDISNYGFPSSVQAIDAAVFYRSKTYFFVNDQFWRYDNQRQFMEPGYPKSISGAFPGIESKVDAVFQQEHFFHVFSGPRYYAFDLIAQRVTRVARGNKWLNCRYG
TACE, sequence (P78536 215-824): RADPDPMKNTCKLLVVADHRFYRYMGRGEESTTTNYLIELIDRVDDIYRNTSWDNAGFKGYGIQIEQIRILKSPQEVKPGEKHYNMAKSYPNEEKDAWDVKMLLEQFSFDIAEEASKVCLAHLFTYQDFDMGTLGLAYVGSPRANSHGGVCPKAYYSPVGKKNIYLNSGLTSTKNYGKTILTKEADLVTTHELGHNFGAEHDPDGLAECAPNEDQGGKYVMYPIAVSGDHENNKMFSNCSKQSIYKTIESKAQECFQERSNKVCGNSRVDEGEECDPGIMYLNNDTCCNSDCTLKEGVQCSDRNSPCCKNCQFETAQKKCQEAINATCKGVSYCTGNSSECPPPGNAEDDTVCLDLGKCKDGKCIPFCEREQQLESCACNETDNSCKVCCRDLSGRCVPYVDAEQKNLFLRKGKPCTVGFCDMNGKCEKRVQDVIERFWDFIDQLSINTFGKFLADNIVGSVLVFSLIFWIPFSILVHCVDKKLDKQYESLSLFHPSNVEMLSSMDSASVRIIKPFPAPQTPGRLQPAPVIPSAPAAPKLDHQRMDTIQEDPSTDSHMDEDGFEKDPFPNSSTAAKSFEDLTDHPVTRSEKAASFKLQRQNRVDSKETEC

COc1ccc(CC#Cc2ccc3c(c2)c(=O)n(Cc2ccc(C(=O)O)cc2)c(=O)n3C)cc1 [Example 2, 4-{6-[3-(4-Methoxy-phenyl)-prop-1-ynyl]-1-methyl-2,4-dioxo-1,4-dihydro-2H-quinazolin-3-ylmethyl}-benzoic acid]
IC50 ([1]; read-out: IC50 MMP-9): > 30 µM
IC50 ([2]; read-out: IC50 MMP-3): 0.83 µM
IC50 [3, 19]: > 100 µM
IC50 ([4]; read-out: IC50 MMP-2): > 100 µM
IC50 [5, 20]: 0.00018 µM
IC50 ([6]; read-out: IC50 MMP-14): > 100 µM
IC50 ([7]; read-out: IC50 MMP-1): > 100 µM

COc1ccc(C(=O)NCc2cccnc2)cc1C(=O)NCc1cccnc1 [Entry 7]
IC50 Ratio (±) [8]: 0.41

O=C(OCc1ccccc1)c1ccc2[nH]c(=O)n(Cc3ccccc3)c(=O)c2c1 [Example 4, 3-Benzyl-2,4-dioxo-1,2,3,4-tetrahydro-quinazoline-6-carboxylic acid benzyl ester]
IC50 ([1]; unit inferred, read-out: Activities measured by TPL assays, MMP-9): > 100 µM
IC50 ([9]; unit inferred, read-out: Activities measured by TPL assays, MMP-7): > 30 µM
IC50 ([2]; unit inferred, read-out: Activities measured by TPL assays, MMP-3): > 30 µM
IC50 ([4]; unit inferred, read-out: Activities measured by TPL assays, MMP-2): > 100 µM
IC50 ([5]; TPL assay, unit inferred, read-out: Activities measured by TPL assays, MMP-13): 0.0295 µM
IC50 ([6]; unit inferred, read-out: Activities measured by TPL assays, MMP-14): > 100 µM
IC50 ([7]; unit inferred, read-out: Activities measured by TPL assays, MMP-1): > 30 µM

O=C(NCCCCN1CCOCC1)c1cc2ccccc2o1 [CL-82198]
Activity against MMP-9 [10]: complete lack of activity
Activity against TACE [11]: complete lack of activity
Activity against MMP-1 [12]: complete lack of activity
Inhibition of MMP-13 [13]: weak inhibition

O=C(O)c1ccc(CNC(=O)c2cc(-c3ccc(OC(F)(F)F)cc3)cs2)cc1 [Example 5, 4-({[4-(4-Trifluoromethoxyphenyl)thien-2-yl]carboxamido}methyl) benzoic acid]
IC50 ([1]; read-out: IC50 MMP-9): > 30 µM
IC50 ([9]; read-out: IC50 MMP-7): > 30 µM
IC50 [14]: > 30 µM
IC50 ([2]; read-out: IC50 MMP-3): > 30 µM
IC50 [3, 19]: > 0.4 µM
IC50 [3, 21]: 0.012 µM
IC50 ([4]; read-out: IC50 MMP-2): > 30 µM
IC50 [5, 20]: 0.00014 µM
IC50 ([5]; in presence of acetohydroxamic acid (+AH), read-out: IC50 MMP13 (+AH)): 0.063 µM
IC50 ([6]; read-out: IC50 MMP-14): > 30 µM
IC50 ([7]; read-out: IC50 MMP-1): > 30 µM

Nc1ccc(-c2ccc(S(N)(=O)=O)cc2)cc1 [Entry 1]
IC50 Ratio (±) [8]: 0.47^a

CC1(C)NC(=O)N(C[C@@H](COc2ccc(-c3ccc(OC(F)(F)F)cc3)cc2)N(O)C=O)C1=O
Selectivity for MMP-2 versus MMP-1 [15]: highly selective

CN1c2ccc(C3CN(Cc4ccccc4)C(=O)CO3)cc2CS1(=O)=O (stereo not shown) [Example 7, 4-Benzyl-6-(1-methyl-2,2-dioxo-2,3-dihydro-1H-2λ^6-benzo[c]isothiazol-5-yl)morpholin-3-one]
IC50 [3, 19]: 17 µM
IC50 [3, 21]: 0.27 µM
IC50 [5, 20]: 3.6 µM

CC1(C)OCC([C@@H](CS(=O)(=O)c2ccc(Oc3ccc(OC(F)(F)F)cc3)cc2)N(O)C=O)O1 (stereo partly shown)
Antitumor activity [16]: demonstrated antitumor activity
Selectivity for inhibition of MMP-2 and MMP-9 over MMP-1 [17]: selective

O=C(NC(=S)NCc1cc(-c2ccccc2)no1)c1ccccc1 [Entry 10]
IC50 ([8]; 0 mM AcNHOH, read-out: Without AcNHOH IC50): 2.3 µM
IC50 ([8]; 15 mM AcNHOH (1 Kd), read-out: With AcNHOH IC50): 0.2 µM
IC50 Ratio (±) [8]: 0.08

Cc1cc(O)nc(SCc2ccc(Cl)cc2)n1 [Entry 4]
IC50 Ratio (±) [8]: 0.07^a

COc1ccc(NC(=O)Nc2ccc3nc(C)cc(N)c3c2)cc1 [Entry 3]
IC50 Ratio (±) [8]: 0.56

COc1ccc(S(=O)(=O)N(Cc2cccnc2)[C@@H](C(=O)NO)C(C)C)cc1 [CGS27023A]
IC50 [18]: 0.002 µM

NS(=O)(=O)c1ccc(-c2ccc([N+](=O)O)cc2)cc1 [Entry 2]
IC50 Ratio (±) [8]: 0.04

Cc1c(-c2ccc(-n3ccnc3)cc2)[nH][nH]c1=O [Entry 5]
IC50 Ratio (±) [8]: 1.16

COc1cccc(COC(=O)c2cc3c(=O)n(Cc4ccc(-c5nn[nH]n5)cc4)c(=O)[nH]c3s2)c1 [Example 3, 2,4-Dioxo-3-[4-(2H-tetrazol-5-yl)-benzyl]-1,2,3,4-tetrahydro-thieno[2,3-d]pyrimidine-6-carboxylic acid 3-methoxy-benzyl ester]
IC50 ([1]; read-out: IC50 MMP-9): > 100 µM
IC50 ([2]; read-out: IC50 MMP-3): 0.16 µM
IC50 [3, 19]: 3.4 µM
IC50 ([4]; read-out: IC50 MMP-2): > 100 µM
IC50 [5, 20]: 0.0012 µM
IC50 ([6]; read-out: IC50 MMP-14): > 100 µM
IC50 ([7]; read-out: IC50 MMP-1): > 100 µM

CCOC(=O)/C=C/c1ccc(-n2ccnc2)cc1 [Entry 6]
IC50 Ratio (±) [8]: 0.82

O=C(O)C[C@@H](NC(=O)c1cc(-c2ccc(-c3ccncc3)cc2)cs1)c1ccccc1 [Example 6, (2?)-3-({[4-1(pyridin-4-yl)phényl]-thièn-2-yl]carboxamido)(phényl)propanoic acid hydrochloride]
IC50 ([1]; read-out: IC50 MMP-9): > 1.4 µM
IC50 [14]: > 0.98 µM
IC50 ([2]; read-out: IC50 MMP-3): > 1.7 µM
IC50 [3, 19]: 0.014 µM
IC50 [3, 21]: 0.004 µM
IC50 ([4]; read-out: IC50 MMP-2): > 0.39 µM
IC50 [5]: 0.27 µM
IC50 ([7]; read-out: IC50 MMP-1): > 101 µM

COc1ccc(CC#Cc2ccc3ncn(Cc4ccc(C(=O)O)cc4)c(=O)c3c2)cc1 [Example 1, 4-{6-[3-(4-Methoxy-phenyl)-prop-1-ynyl]-4-oxo-4H-quinazolin-3-ylmethyl}-benzoic acid]
IC50 ([1]; read-out: IC50 MMP-9): > 30 µM
IC50 ([2]; read-out: IC50 MMP-3): 0.22 µM
IC50 [3, 19]: > 30 µM
IC50 ([4]; read-out: IC50 MMP-2): > 100 µM
IC50 ([6]; read-out: IC50 MMP-14): > 100 µM
IC50 ([7]; read-out: IC50 MMP-1): > 100 µM

O=C(NC[C@H]1CC[C@H](C(=O)O)CC1)c1cc(-c2ccc(-c3ccncc3)cc2)ns1 [Example 8, Trans 3-[4-(4-pyridyl)phenyl]-5-isothiazole carboxamido methyl-cyclohexane carboxylic acid, Potassium Salt]
IC50 [3, 19]: 0.57 µM
IC50 [3, 21]: 0.015 µM
IC50 [5, 20]: 1.9 µM
